Target: HIV-1 protease (Human immunodeficiency virus type 1 group M subtype B, UniProt P04585)
Experiment: HIV-1 protease inhibitory activity
Format: biochemical
Conditions: for fold better inhibitory activity than 3i: compared with 3i

With COCCOc1c(N[C@@H](Cc2ccccc2)[C@H](O)CN(CC(C)C)S(=O)(=O)c2ccc(OC)cc2)c(=O)c1=O [Inhibitor 3b] the “loss of protease inhibitory activity relative to 3a” value (compared with 3a) was “over 4 fold”.

In the case of COc1ccc(S(=O)(=O)N(CC(C)C)C[C@@H](O)[C@H](Cc2ccccc2)Nc2c(N(C)[C@H]3CCOC3)c(=O)c2=O)cc1 [Inhibitor 3g], the “potency enhancement over compound 3e” value (compared with 3e) is reported as 15 fold.

In the case of COc1ccc(S(=O)(=O)N(CC(C)C)C[C@@H](O)[C@H](Cc2ccccc2)Nc2c(N(C)[C@@H]3CCOC3)c(=O)c2=O)cc1 [Inhibitor 3h], the “fold more potent than 3g” value (compared with 3g) is reported as “over 775 fold”.

In the case of COc1ccc(S(=O)(=O)N(CC(C)C)C[C@@H](O)[C@H](Cc2ccccc2)Nc2c(N[C@@H]3CO[C@@H]4OCC[C@@H]43)c(=O)c2=O)cc1 [Inhibitor 3j], the “fold better inhibitory activity than 3i” value is reported as ~10 fold.

In the case of COc1ccc(S(=O)(=O)N(CC(C)C)C[C@@H](O)[C@H](Cc2ccccc2)Nc2c(N(C)[C@H]3CO[C@H]4OCC[C@H]43)c(=O)c2=O)cc1 [Inhibitor 3k], the “fold better inhibitory activity than 3i” value is reported as “over 10 fold”.

— publication PMC6711809 (Bioorganic & medicinal chemistry letters, 2019)
